Like-named read-outs stand apart in the source and are kept apart here.
Columns and labels:
[1] = Singlet oxygen measurement, indirect evaluation (RNO reporter absorbance); type: physicochemical; settings: indirect method, excitation at 450 nm, average of three, +-10%
Description: For the measurement in CH3CN: The samples were prepared in an air-saturated CH3CN solution containing the complex with an absorbance of 0.1 at the irradiation wavelength, N,N-dimethyl-4-nitrosoaniline aniline (RNO, 24 μM) and imidazole (12 mM). For the measurement in PBS buffer: The samples were prepared in an air-saturated PBS solution containing the complex with an absorbance of 0.1 at the irradiation wavelength, N,N-dimethyl-4-nitrosoaniline aniline (RNO, 20 μM) and histidine (10 mM). The samples were irradiated on 96 well plates with an Atlas Photonics LUMOS BIO irradiator for different times. The absorbance of the samples was measured during these time intervals with a SpectraMax M2 Microplate Reader (Molecular Devices). The difference in absorbance (A0-A) at 420 nm for the CH3CN solution or at 440 nm a PBS buffer solution was calculated and plotted against the irradiation times. From the plot the slope of the linear regression was calculated as well as the absorbance correction factor determined. The singlet oxygen quantum yields were calculated using the same formulas as used for the direct evaluation.
Additionally, the DFT calculations were able to characterize the lowest energy absorption band as a MLCT transition with a triplet state. With this in hand, a quantitative evaluation of singlet oxygen (^1O2) was performed to assess the potential of the PSs in PDT, by two methods: 1) direct by measurement of the luminescence of ^1O2, 2) indirect by measurement of the variation in absorbance of a reporter molecule, as described above. In the first method, the efficiency of the production of ^1O2 was assessed by measuring its phosphorescence at 1270 nm. Worthy of note, the possibility of detection in this experiment is affected by its environment as well as the used setup. With the setup used in this study, we could only detect Φ(^1O2) larger than 0.20 based on a low peak-to-noise ratio. In the second method (indirect method), ^1O2 is reacting with imidazole (in CH3CN) and histidine (in PBS buffer) to a trans-annular peroxide adduct. This can further quench the absorbance of the reporter molecule p-nitrosodimethyl aniline (RNO), which has been monitored by UV/VIS spectroscopy. In both methods, the ^1O2 production has been compared with a reference molecule, namely a solution of phenalenone in CH3CN (Φ(^1O2)phenaleone=0.95)^33 and a solution of [Ru(bipy)3]Cl2 in water Φ(^1O2)Ru(bipy)3Cl2=0.22)^31. […] In comparison, the values changed drastically in an aqueous solution. […] They have untypically low Φ(^1O2) values in CH3CN (0.22-0.35) for Ru(II) polypyridyl complexes. Subsequently, the ^1O2 production was also quite low in an aqueous environment.

[2] = system: human glioblastoma cells (U87); assay: Dark and light cytotoxicity, resazurin cell viability assay, U87; type: cell-based; settings: for PI (IC50 in the dark/IC50 upon light irradiation): U87, 480 nm
Description: (§1) HeLa and CT-26 cell lines were cultured in DMEM media (Gibco, Life Technologies, USA) supplemented with 10% of fetal calf serum (Gibco). U87 and U373 cell lines were cultured in MEM media with addition of 1% of MEM NEAA (non-essential aminoacids) (Gibco) and 10% of fetal calf serum. RPE-1 cells were cultured in DMEM/F-12 (Gibco) supplemented with 10% of fetal calf serum. RPE-1 stable cells lines were cultured as RPE-1 cells with addition of geneticin (0.5 mg/ml) (Gibco). All cell lines were complemented with 100 U/ml penicillin-streptomycin mixture (Gibco), and maintained in humidified atmosphere at 37° C. and 5% of CO2.
(§2) Dark and light cytotoxicity of the Ru(II) complexes was assessed by fluorometric cell viability assay using resazurin (ACROS Organics). For dark and light cytotoxicity, cells were seeded in triplicates in 96 well plates at a density of 4000 cells per well in 100 μl, 24 h prior to treatment. The medium was then replaced with increasing concentration of the tested complexes and cells were incubated for 4 h. Medium was then replaced for fresh complete medium. Cells used for light cytotoxicity experiment were exposed to: 480 nm light for 10 min, 510 nm for 40 min, 540 for 60 min or 595 nm for 120 min in a 96-well plate using a LUMOS-BIO photoreactor (Atlas Photonics). Each well was individually illuminated with a LED at constant current. After irradiation cells were kept for another 44 h in the incubator and the medium was replaced by fresh complete medium containing resazurin (0.2 mg ml^−1 final concentration). After 4 h incubation at 37° C., the fluorescence signal of the resorufin product was read by SpectraMax M5 microplate reader (ex: 540 nm em: 590 nm). IC50 values were calculated using GraphPad Prism software.
(§3) The potential of the complexes to act as PDT PSs was determined on mouse colon carcinoma cells (CT-26), human glioblastoma cells (U87 and U373), human cervical carcinoma cells (HeLa) as well as non-cancerous retina pigmented epithelial cell line (RPE-1) according to the method described above. […] Ideally, a PDT PS should be non-toxic in the dark and highly toxic upon light activation. […] The toxicity of the compounds upon light irradiation (480 nm, 10 min, 3.21 J cm^−2) was then investigated.

[3] = system: CT-26 mouse colon carcinoma cells; assay: Dark and light cytotoxicity, resazurin cell viability assay, CT-26; type: cell-based; settings: for PI (IC50 in the dark/IC50 upon light irradiation): CT-26, 480 nm
Description: as §1, §2, §3

[4] = system: human glioblastoma cells (U373); assay: Dark and light cytotoxicity, resazurin cell viability assay, U373; type: cell-based; settings: for PI (IC50 in the dark/IC50 upon light irradiation): U373, 480 nm
Description: as §1, §2, §3

[5] = In vivo biodistribution in healthy BALB/c mice (ruthenium by ICP-MS); set-up: species or system mouse
Description: Twenty four, 8 week old healthy BALB/c female mice were used in this study. 0.015 mg/ml solution of complex 6 was prepared in Milli-Q water and filtrated (0.2 μm cellulose acetate membrane, VWR). For the introduction of solution of complex 6, IV injection was used (300 μl per mouse). Organ samples, including brain, liver, spleen, kidneys and lung, were collected from treated mice after 2 h, 6 h and 24 h post-injection. Each time six mice were sacrificed. Remaining six animals were used as a control.
For these experiments, we have decided to use the chloride salt of the complex 6 to improve its solubility. The time-dependent biodistribution of this compound in different organs was determined in healthy 8-week-old BALB/c mice according to the above-described method. The amount of ruthenium in the tested samples was assessed using Inductive Coupled Plasma Mass-Spectrometry (ICP-MS). […] After 24 h, the amount of ruthenium in the liver decreased. This is a very promising result that could indicate that complex 6 is metabolized by the liver in living organisms.

[6] = U87, light 480 nm, 10 min, 3.21 J cm^−2, read-out: IC50 Light
[7] = CT-26, dark, 4 h incubation, read-out: IC50 Dark
[8] = CT-26, light 480 nm, 10 min, 3.21 J cm^−2, read-out: IC50 Light
[9] = U373, dark, read-out: IC50 Dark
[10] = U373, light 480 nm, 10 min, 3.21 J cm^−2, read-out: IC50 Light

Molecule	Singlet oxygen quantum yield Φ(1O2), CH3CN Indirect [1]	Singlet oxygen quantum yield Φ(1O2), PBS indirect [1]	PI (IC50 in the dark/IC50 upon light irradiation) ([2]; 10 min)	IC50 ([2]; U87, dark, read-out: IC50 Dark)	IC50 [2, 6]	IC50 [3, 7]	IC50 [3, 8]	IC50 [4, 9]	IC50 [4, 10]	PI (IC50 in the dark/IC50 upon light irradiation) ([3]; 10 min)	other results
F[P-](F)(F)(F)(F)F.F[P-](F)(F)(F)(F)F.[Ru+2].c1ccc(-c2ccccn2)nc1.c1cnc2c(c1)ccc1cccnc12.c1cnc2c(c1)ccc1cccnc12 [Compound 1, (Bipyridine)bis(1,10-phenanthroline)ruthenium(II)hexafluorophosphate]	0.54	0.46	>1	> 100 µM	93.7 ± 2.5 µM	> 100 µM	> 100 µM	> 100 µM	> 100 µM		
Cc1ccnc(-c2cc(C)ccn2)c1.F[P-](F)(F)(F)(F)F.F[P-](F)(F)(F)(F)F.[Ru].c1cnc2c(c1)ccc1cccnc12.c1cnc2c(c1)ccc1cccnc12 [Compound 2, (4,4′-Dimethyl-2,2′-bipyridine)bis(1,10-phenanthroline)ruthenium(II)hexafluorophosphate]	0.53	0.34	>1	> 100 µM	71.4 ± 7.54 µM	> 100 µM	91.2 ± 7.54 µM	> 100 µM	> 100 µM	>1	
(2,2′-bipyridine-4,4′-carboxamide)bis(1,10-phenanthroline)ruthenium(II) hexafluorophosphate [Compound 4]	0.59	0.26		> 100 µM	> 100 µM	> 100 µM	72.6 ± 7.44 µM	> 100 µM	> 100 µM	>1	
(4,4′-Dibromo-2,2′-bipyridine)bis(1,10-phenanthroline)ruthenium(II) hexafluorophosphate [Compound 3]	0.56	0.16		> 100 µM	> 100 µM	> 100 µM	85.7 ± 9.47 µM	> 100 µM	> 100 µM	>1	
(4,4′-Dimethyl-2,2′-bipyridine)bis(4,7-diphenyl-1,10-phenanthroline)ruthenium(II) hexafluorophosphate [Compound 6]	0.63	0.03	42.5	28.4 ± 1.97 µM	0.67 ± 0.13 µM	3.09 ± 0.3 µM	0.19 ± 0.04 µM	23.4 ± 0.53 µM	1.89 ± 0.07 µM	16.3	Levels of Ru in harvested organs (brain, liver, spleen, kidneys, lung) ([5]; IV injection, 6 h post injection, chloride salt): only liver had clearly increased levels of Ru; Amount of ruthenium in the liver ([5]; IV injection, after 24 h, chloride salt): decreased; Behaviour of treated animals ([5]; IV injection, chloride salt): behave normally, without signs of pain, stress or discomfort; Blood analysis, immune response compared to untreated control ([5]; after 24 h treatment): no sign of immune response; PI ([3]; CT-26, 510 nm 40 min): 20.6; PI ([3]; CT-26, 540 nm 60 min): 9.6; PI ([3]; CT-26, 595 nm 2 h): 23.47; IC50 ([3]; CT-26, dark control of the 510 nm 40 min experiment, read-out: IC50 Dark): 4.18 ± 0.56 µM; IC50 ([3]; CT-26, dark control of the 540 nm 60 min experiment, read-out: IC50 Dark): 3.27 ± 0.64 µM; IC50 ([3]; CT-26, dark control of the 595 nm 2 h experiment, 2 h at 37° C. in non-CO2 atmosphere, read-out: IC50 Dark): 1.408 ± 0.003 µM; IC50 ([3]; CT-26, light 540 nm 60 min, read-out: IC50 Light): 0.34 ± 0.005 µM; IC50 ([3]; CT-26, light 595 nm 2 h, no CO2 atmosphere during irradiation, read-out: IC50 Light): 0.06 ± 0.004 µM; PI (IC50 in the dark/IC50 upon light irradiation) ([4]; 10 min): 12.37
((E,E′)-4,4′-Bis(N,N′-dimethylaminovinyl)-2,2′-bipyridine)bis(1,10-phenanthroline)ruthenium(II) hexafluorophosphate [Compound 5]	0.30	0.21		> 100 µM	> 100 µM	> 100 µM	52.5 ± 6.04 µM	> 100 µM	> 100 µM	>2	
((E,E′)-4,4′-Bis(N,N′-dimethylaminovinyl)-2,2′-bipyridine)bis(4,7-diphenyl-1,10-phenanthroline)ruthenium(II) hexafluorophosphate [Compound 7]	0.35	0.07	>12.7	> 100 µM	7.9 ± 0.54 µM	94.5 ± 7.38 µM	6.62 ± 0.7 µM	> 100 µM	14.8 ± 0.81 µM	14.3	PI (IC50 in the dark/IC50 upon light irradiation) ([4]; 10 min): >6.7

— patent US12636366B2, “Ruthenium (II) complexes and conjugates thereof for use as photosensitizer agent in photodynamic therapy” (Paris Sciences et Lettres, priority 2019, dated 2026)
